Source: patent US20250084026A1, “NOVEL SALT OF 1-SULFONYL PYRROLE DERIVATIVE, PREPARATION METHOD THEREOF AND PHARMACEUTICAL COMPOSITION COMPRISING THEREOF” (ILDONG PHARMACEUTICAL CO., LTD., priority 2021, published 2025)
Converted amounts (≈) assume the structure as drawn. Read-outs that look alike come from different tables or passages of the source. One block for each compound: values may come before it.

Experiments:
Assay type in all cases: physicochemical
[1] = Drug stability under stress condition, 60° C. open, XRPD and HPLC; details: for HPLC peak RT 10.063 min, RRT 1.00 / HPLC peak RT 7.423 min, RRT 0.74 / HPLC peak RT 10.277 min, RRT 1.02: in %; for Stability under harsh conditions (in words): up to Week 2
Method: 10 mg and 40 mg of the free base and the fumaric acid salt of 1-(5-(2-fluorophenyl)-4-methoxy-1-((6-methoxypyridin-3-yl) sulfonyl)-1H-pyrrol-3-yl)-N-methylmethanamine were weighed into each vial and stored under stress conditions to investigate stability.
The stress conditions are as follows: • high temperature open room condition: 60° C.; • The bottle neck of the vial was wrapped with aluminum foil with pinholes to avoid contamination, and the samples were analyzed by XRPD and HPLC at the onset (Day 0), week 1 and week 2.

[2] = Drug stability at 40° C., 75% RH for 8 weeks (XRPD, TGA, HPLC)
Method: In order to confirm the stability of the fumarate salt of 1-(5-(2-fluorophenyl)-4-methoxy-1-((6-methoxypyridin-3-yl) sulfonyl)-1H-pyrrole-3-yl)-N-methylmethanamine prepared under an isopropyl alcohol solvent, water sorption and/or hydrate formation were confirmed under conditions of 75% RH at 40° C. for 8 weeks.
To proceed with the experiment, 100 mg of the fumarate salt of 1-(5-(2-fluorophenyl)-4-methoxy-1-((6-methoxypyridin-3-yl) sulfonyl)-1H-pyrrole-3-yl)-N-methylmethanamine was put in a vial with a wide mouth (Experimental group 1), and the other sample was put in a vial that is double-packed with a polyethylene bag (Experimental group 2). Then, both samples were placed inside a 40° C., 75% RH chamber and monitored at 2-week intervals.
The XRPD values were checked every two weeks to identify whether or not there was a change in the crystalline form, and the results are shown in Table 11.

[3] = Dynamic vapor sorption (DVS) hygroscopicity; details: 25° C., 0%~95%~0% RH cycle; compared to the known hygroscopicity evaluation standard
Method: Using DVS intrinsic manufactured by Surface Measurement Systems Ltd, about 20 mg of the sample was tested for water sorption/desorption profiles at 25° C. under a 0%˜95%˜0% relative humidity (RH) cycle using the following parameters.
Equilibrium: dm/dt: 0.01%/min.
Range of RH (%) measurement step: 0%˜95%˜0%; RH (%) measurement step: 5%

[4] = Solubility in bio-relevant media (water, SGF, FaSSIF, FeSSIF), HPLC; details: for solubility at 1 h / solubility at 24 h: thermodynamic from solid; for solubility at 1 h: read-out: Solubility-1 h concentration; for solubility at 24 h: read-out: Solubility-24 h concentration
Method: Solubility in bio-relevant media, i.e., stimulated gastric fluid (SGF), fasted state simulated intestinal fluid (FaSSIF), and fed state simulated intestinal fluid (FeSSIF) of the free base and the fumarate salt of 1-(5-(2-fluorophenyl)-4-methoxy-1-((6-methoxypyridin-3-yl) sulfonyl)-1H-pyrrole-3-yl)-N-methylmethanamine that was confirmed through the salt screening analysis result, was confirmed.
Buffers for the bio-relevant media were prepared as follows. • Water: Laboratory Milli-Q purified water. • SGF (Stimulated Gastric Fluid): 2.0 g of sodium chloride and 7 mL of hydrochloric acid dissolved in 1000 ml of water was used. • FaSSIF (Fasted State Simulated Intestinal Fluid): A commercial product purchased from Bio-Relevant Company and manufactured according to instructions was used. • FeSSIF (Fed State Simulated Intestinal Fluid): A commercial product purchased from Bio-Relevant Company and prepared according to instructions was used.
For the experiment, about 10 mg of compound (10 mg as free base form) was weighed into each glass vial and then 1 mL of medium was added (final concentration of 10 mg/mL). Then, the sample was continuously stirred in a magnetic stirrer at 37° C. at a speed of 200 rpm. After stirring for 1 hour and 24 hours, 0.5 mL of the sample solution was transferred to a 1.5 mL centrifuge tube and centrifuged at 12,000 rpm for 5 minutes. The supernatant was diluted with suitable methanol and analyzed by HPLC.
The free base was selected as a standard sample to quantify the solubility, and about 10 mg of the free base was weighed into a 25 mL flask and dissolved in methanol to the curve.
The residue of the compound in water was tested by XRPD to determine the solid state.

[5] = Thermal gravimetric analysis (TGA) weight loss
Method: Using Pyris 1 TGA manufactured by PerkinElmer, Inc., a compound sample (about 5 mg) was weighed in pans under nitrogen purge at a ramp rate of 20° C./min over the range of 30 to 300° C.

[6] = Week 2, 4, 6 and 8, Experimental groups 1 and 2

% Impurities ([1]; 60° C., Week 1): 0.76% | Assay % ([1]; 60° C., Week 1): 105.69% | Crystalline form (XRPD) ([1]; 60° C., Week 1): Crystalline | HPLC peak RT 9.327 min, RRT 0.93 ([1]; 60° C., Week 1): 0.17% | HPLC peak RT 10.813 min, RRT 1.07 ([1]; 60° C., Week 1): 0.59% | HPLC peak RT 10.063 min, RRT 1.00 ([1]; 60° C., Week 1): 99.24 | % Impurities ([1]; 60° C., Week 2): 0.80% | Assay % ([1]; 60° C., Week 2): 94.74% | Crystalline form (XRPD) ([1]; 60° C., Week 2): Crystalline | HPLC peak RT 9.327 min, RRT 0.93 ([1]; 60° C., Week 2): 0.18% | HPLC peak RT 10.813 min, RRT 1.07 ([1]; 60° C., Week 2): 0.62% | HPLC peak RT 10.063 min, RRT 1.00 ([1]; 60° C., Week 2): 99.20 | Stability under harsh conditions (in words) ([1]; 60° C.): excellent stability | % Impurities ([1]; Day 0): 0.77% | Assay % ([1]; Day 0): 100.00% | Crystalline form (XRPD) ([1]; Day 0): Crystalline | HPLC peak RT 9.327 min, RRT 0.93 ([1]; Day 0): 0.17% | HPLC peak RT 10.813 min, RRT 1.07 ([1]; Day 0): 0.6% | HPLC peak RT 10.063 min, RRT 1.00 ([1]; Day 0): 99.23 | Polymorphic change vs initial XRPD of crystalline Form I ([2]; 8 weeks): no polymorphic change | Whether or not XRPD value changed ([2]; Experimental group 1 (vial with a wide mouth), Week 2): Same | Whether or not XRPD value changed ([2]; Experimental group 1 (vial with a wide mouth), Week 2 (second line so printed, r7)): Same | Whether or not XRPD value changed ([2]; Experimental group 1 (vial with a wide mouth), Week 6): Same | Whether or not XRPD value changed ([2]; Experimental group 1 (vial with a wide mouth), Week 8): Same | Whether or not XRPD value changed ([2]; Experimental group 2 (vial double-packed with polyethylene bag), Week 2): Same | Whether or not XRPD value changed ([2]; Experimental group 2 (vial double-packed with polyethylene bag), Week 2 (second line so printed, r7)): Same | Whether or not XRPD value changed ([2]; Experimental group 2 (vial double-packed with polyethylene bag), Week 6): Same | Whether or not XRPD value changed ([2]; Experimental group 2 (vial double-packed with polyethylene bag), Week 8): Same | Hygroscopicity (TGA analysis, in words) [2, 6]: significantly low hygroscopicity | Purity (HPLC analysis, in words) [2, 6]: high purity | Hygroscopicity (DVS, in words) [3]: very low hygroscopicity | Solubility (in words) ([4]; all of SGF, FaSSIF, and FeSSIF): excellent solubility | Solubility (in words) ([4]; fasted state simulated intestinal fluid (FaSSIF)): very good solubility | solubility at 1 h ([4]; simulated gastric fluid, SGF, 37° C.): > 10000 µg/mL | solubility at 24 h ([4]; simulated gastric fluid, SGF, 37° C., 24 h): > 10000 µg/mL | solubility at 1 h ([4]; FaSSIF, 37° C.): 7910 µg/mL | solubility at 24 h ([4]; FaSSIF, 37° C., 24 h): 7580 µg/mL | solubility at 1 h ([4]; FeSSIF, 37° C.): 4500 µg/mL | solubility at 24 h ([4]; FeSSIF, 37° C., 24 h): 4440 µg/mL | solubility at 1 h ([4]; water, 37° C.): 6390 µg/mL | solubility at 24 h ([4]; water, 37° C., 24 h): 5320 µg/mL | TGA weight loss (% w/w) ([5]; 120° C., listed as Example 3): ~0.0307%,
Structure (SMILES): CNCc1cn(S(=O)(=O)c2ccc(OC)nc2)c(-c2ccccc2F)c1OC.O=C(O)/C=C/C(=O)O [Fumarate salt, fumarate salt of 1-(5-(2-fluorophenyl)-4-methoxy-1-((6-methoxypyridin-3-yl)sulfonyl)-1H-pyrrole-3-yl)-N-methylmethanamine]

Hygroscopicity (from TGA, in words) [5]: high hygroscopicity | TGA weight loss [5]: 1.0189%
Structure (SMILES): CNCc1cn(S(=O)(=O)c2ccc(OC)nc2)c(-c2ccccc2F)c1OC.O=P(O)(O)O [phosphate salt, Phosphate Salt of 1-(5-(2-fluorophenyl)-4-methoxy-1-((6-methoxypyridin-3-yl)sulfonyl)-1H-pyrrol-3-yl)-N-methylmethanamine]

% Impurities ([1]; 60° C., Week 1): 20.94% | Assay % ([1]; 60° C., Week 1): 67.44% | Crystalline form (XRPD) ([1]; 60° C., Week 1): Melted | HPLC peak RT 6.797 min, RRT 0.68 ([1]; 60° C., Week 1): 0.43% | HPLC peak RT 7.563 min, RRT 0.75 ([1]; 60° C., Week 1): 1% | HPLC peak RT 9.327 min, RRT 0.93 ([1]; 60° C., Week 1): 0.18% | HPLC peak RT 10.813 min, RRT 1.07 ([1]; 60° C., Week 1): 0.57% | HPLC peak RT 7.423 min, RRT 0.74 ([1]; 60° C., Week 1): 18.86 | HPLC peak RT 10.063 min, RRT 1.00 ([1]; 60° C., Week 1): 79.06 | HPLC peak RT 10.277 min, RRT 1.02 ([1]; 60° C., Week 1): 9.95 | % Impurities ([1]; 60° C., Week 2): 35.00% | Assay % ([1]; 60° C., Week 2): 60.29% | Crystalline form (XRPD) ([1]; 60° C., Week 2): Melted | HPLC peak RT 6.797 min, RRT 0.68 ([1]; 60° C., Week 2): 0.31% | HPLC peak RT 7.563 min, RRT 0.75 ([1]; 60° C., Week 2): 4.12% | HPLC peak RT 9.327 min, RRT 0.93 ([1]; 60° C., Week 2): 0.14% | HPLC peak RT 10.813 min, RRT 1.07 ([1]; 60° C., Week 2): 0.53% | HPLC peak RT 7.423 min, RRT 0.74 ([1]; 60° C., Week 2): 13.51 | HPLC peak RT 10.063 min, RRT 1.00 ([1]; 60° C., Week 2): 65.0 | HPLC peak RT 10.277 min, RRT 1.02 ([1]; 60° C., Week 2): 16.38 | Stability under harsh conditions (in words) ([1]; 60° C.): high impurity content | % Impurities ([1]; Day 0): 0.85% | Assay % ([1]; Day 0): 100.00% | Crystalline form (XRPD) ([1]; Day 0): Free form | HPLC peak RT 9.327 min, RRT 0.93 ([1]; Day 0): 0.18% | HPLC peak RT 10.813 min, RRT 1.07 ([1]; Day 0): 0.66% | HPLC peak RT 10.063 min, RRT 1.00 ([1]; Day 0): 99.15 | Solubility-24 h concentration ([4]; water, 37° C., 24 h): 8630 µg/mL (≈ 21.3 mM)
Structure (SMILES): CNCc1cn(S(=O)(=O)c2ccc(OC)nc2)c(-c2ccccc2F)c1OC [Free base, 1-(5-(2-fluorophenyl)-4-methoxy-1-((6-methoxypyridin-3-yl)sulfonyl)-1H-pyrrol-3-yl)-N-methylmethanamine]
